# Test results from US11931352B2, “Combination therapies for treating cancer” (UNIVERSITY OF VIRGINIA PATENT FOUNDATION, priority 2018, dated 2024).
# Legend:
# [1] = tested on: CBFβ-SMMHC-expressing (Nras/CM) leukemia cells; test: Leukemia transplantation study in mice (leukemia latency); format: in vivo, mouse; conditions: i.p. from day 5; AI-10-49 200 mg/kg/day for 10 days, JQ1 50 mg/kg/day for 21 days
# Method: Leukemia transplantation studies in mice. […] AI-10-49 was administered at 200 mg/kg/day from day 5 to day 14. […] Mice were sacrificed after visible characteristics of AML, including reduced motility and grooming activity, hunched back, and pale paws (anemia). Leukemic cells were extracted from spleen and analyzed at time of euthanasia as previously described (Kuo et al., 2006).
# Statistical Analysis. Analysis was performed using R, a system for statistical computation and graphics (Ihaka and Gentleman, 1996). For mouse leukemia survival analysis, the leukemia latency and P-values were estimated using Survival package in R. P-value between groups was calculated using log-rank test. Relative cell viability, measured as the proportion of viable cells, was first arcsine-transformed to homogenize the variance. […] One-way ANOVA was performed followed by predetermined contrasts for FIGS. 2A, 2B, 2C, 2D, 2E, 4D and 7C. Two-way ANOVA was performed followed by Tukey's honest significance test for FIG. 3C. To compare the response curves (FIGS. 3A & 3D), an indicator variable was created to distinguish the two-drug treatment and one of the single-drug treatments. Two-way ANOVA was performed to compare a single-drug treatment and the two-drug treatment.
# [2] = tested on: MYC; test: MYC transcript levels by qRT-PCR in ME-1 cells; format: cell-based, human; conditions: for MYC transcript and protein levels: single agent treatment of ME-1 cells
# Method: (§1) Quantitative RT-PCR Analysis. mRNA was prepared with a PureLink® RNA Mini Kit (Life Technologies) and cDNA synthesis was performed with a SuperScript III kit (Life Technologies), per the manufacturers' instructions. Quantitative PCR analysis was conducted on an Applied Biosystems StepOnePlus System with Power SYBR® Green PCR Master Mix (Applied Biosystems). Expression levels were determined with the ΔCt method and normalized to ([…] and/or GAPDH. Sequences of primers are provided in the Key Resource Table.
# [3] = relative to the methoxy compound; cited from earlier work
# [4] = tested on: lineage negative mouse Cbfb+/MYH11 leukemic cells; test: MYC expression in mouse Cbfb+/MYH11 leukemic cells; format: cell-based; conditions: 5 μM AI-10-49, 24 hrs
# Method: (§2) Murine bone marrow cells were isolated by crushing femur and tibia of the hind legs of mice. Wild type mouse bone marrow cells were cultured in StemSpan Serum-Free Expansion Medium (SFEM, Stemcell Technologies), 100 U/ml Penicillin and […] Streptomycin (Life Technologies) supplemented with 6 ng/ml murine recombinant IL3, 10 ng/ml murine recombinant IL6, and 50 ng/ml murine recombinant SCF. Cbfb^+/MYH11 and Nras^+/G120 leukemic bone marrow and spleen cells were cultured in StemSpan Serum-Free Expansion Medium (SFEM, Stemcell Technologies), 100 U/ml Penicillin and […] Streptomycin (Life Technologies) supplemented with 10 ng/ml murine recombinant IL3, and 50 ng/ml murine recombinant SCF.
# as §1
# [5] = tested on: RUNX1; test: ChIP-qPCR for RUNX1 at MYC enhancers in ME-1 cells; format: cell-based, human
# Method: (§3) Chromatin Immunoprecipitation (ChIP). […] Cross-linking of proteins to DNA was accomplished by the addition of 1% formaldehyde for 10 min to cultured cells at room temperature. After neutralization with glycine, cells were lysed in lysis buffer with protease inhibitors and samples were sonicated to an average DNA length of 200-400 bp with a bioruptor (Diagenode). After sonication, the chromatin was immunoprecipitated with 10 μg of antibody of interest at 4° C. overnight. Antibody bound complexes were isolated with Dynabeads (Life Technologies). DNA was purified using phenol-chloroform isoamyl-alcohol method. Immunoprecipitated DNA was analyzed by sequencing (explained below) or qPCR on a StepOnePlus System (Applied Biosystems) with Power SYBR® Green PCR Master Mix and calculated as % of input.
# [6] = tested on: human cord blood CD34+ cells; test: MYC expression in normal human CD34+ hematopoietic cells; format: cell-based; conditions: 5 μM AI-10-49, 24 hrs
# Source text: (§4) Primary Hematopoietic Cell Cultures. Human cord blood samples were collected from the UMASS Memorial Medical Center, and CD34^+ cells were isolated using the CD34 Microbead kit (Miltenyi Biotec). The use of the cord blood samples for research purposes was approved by the Ethics Committee of the University of Massachusetts Medical School. Human AML samples were received from Martin Peter Carroll (University of Pennsylvania) and Carsten Mueller-Tidow (University of Heidelberg, Germany). Hematopoietic CD34^+ cells were isolated from human AML bone marrow samples using the CD34 Microbead kit (Miltenyi Biotec). All patients gave written consent for use of their samples. […]
# as §1
# [7] = tested on: wild type lineage negative mouse bone marrow cells; test: MYC expression in normal mouse bone marrow cells; format: cell-based; conditions: 5 μM AI-10-49, 24 hrs
# Method: as §2, §1
# [8] = tested on: H3K27ac; test: ChIP-seq for H3K27ac in ME-1 cells; format: cell-based, human; conditions: AI-10-49 1 μM, 6 hrs; DMSO 31,102
# Method: (§5) Chromatin Immunoprecipitation (ChIP). ME-1 cells were treated with DMSO or AI-10-49 (1 μM) for six hrs. Cross-linking of proteins to DNA was accomplished by the addition of 1% formaldehyde for 10 min to cultured cells at room temperature. After neutralization with glycine, cells were lysed in lysis buffer with protease inhibitors and samples were sonicated to an average DNA length of 200-400 bp with a bioruptor (Diagenode). After sonication, the chromatin was immunoprecipitated with 10 μg of antibody of interest at 4° C. overnight. Antibody bound complexes were isolated with Dynabeads (Life Technologies). DNA was purified using phenol-chloroform isoamyl-alcohol method. Immunoprecipitated DNA was analyzed by sequencing (explained below) or qPCR on a StepOnePlus System (Applied Biosystems) with Power SYBR® Green PCR Master Mix and calculated as % of input.
# (§6) Chromatin immunoprecipitation followed by sequencing (ChIP-seq). DNA concentration was quantified with a NanoDrop spectrophotometer (Thermo Scientific). DNA integrity was evaluated with a 2100 Bioanalyzer (Agilent Technologies). […] Libraries were quantified by qPCR, normalized and pooled before sequencing with single-end 50-bp reads on an Illumina HiSeq4000).
# (§7) ChIP-seq data analysis. ChIP-seq reads were aligned to the human genome (hg19) with Bowtie2 v 2.1.0 (Langmead and Salzberg, 2012) with the standard default settings. […]
# [9] = tested on: non-inv(16) AML cells (U937, K562, Jurkat, Kasumi-1 and THP-1); test: MYC transcript levels in non-inv(16) AML cell lines; format: cell-based; conditions: 1 μM AI-10-49, 6 hrs
# Method: as §1
# [10] = biological target: T1, CBFβ (Homo sapiens, UniProt Q13951); conditions: cited from earlier work
# T1 sequence (Q13951 1-182): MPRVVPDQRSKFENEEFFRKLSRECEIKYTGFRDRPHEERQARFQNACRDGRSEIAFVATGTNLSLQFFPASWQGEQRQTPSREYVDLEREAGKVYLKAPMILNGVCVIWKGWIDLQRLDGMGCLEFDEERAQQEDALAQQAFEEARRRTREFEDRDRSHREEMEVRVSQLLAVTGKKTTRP
# [11] = tested on: human primary inv(16) leukemic CD34+ cells; test: MYC expression in human primary inv(16) AML cells; format: cell-based; conditions: 5 μM AI-10-49, 24 hrs
# Source text: as §4, §1
# [12] = tested on: RUNX1; test: ChIP-seq for RUNX1 in ME-1 cells; format: cell-based, human; conditions: AI-10-49 1 μM, 6 hrs
# Method: as §5, §6, §7
# [13] = tested on: MYC; test: MYC protein levels by immunoblot in ME-1 cells; format: cell-based, human; conditions: 0.1 μM and greater concentrations, 6 hrs
# Method: Immunoblotting. ME-1 cells were lysed in modified RIPA buffer (50 mM Tris pH7.5, 150 mM NaCl, 1% NP40, 0.25% sodium deoxycholate and 1 mM EDTA) with phosphatase inhibitor (Sigma) and protease inhibitors (Millipore) for 15 min in ice followed by centrifugation. Nuclear and cytoplasmic fractions were isolated using Subcellular Protein Fractionation Kit (Thermo Fisher Scientific) according to the manufacturer's instructions. Protein concentrations were determined with the Biorad Protein Assay (Biorad). Proteins were separated on precast 8-12% Mini Protean TGX gels at 60-80 V using the Mini Protean electrophoresis system and were blotted onto PVDF membrane at 100V for 90 min in a Mini Trans-Blot Cell. All antibodies were used as recommended by the manufacturer and mentioned in Key Resource Table. Relative band intensities were quantified using ImageJ software.
# [14] = tested on: ME-1 cells; test: Cell viability (MTT) dose response and synergy analysis in ME-1 cells; format: cell-based, human; conditions: ME-1 cells treated 72 hr, MTT assay
# Method: Cell Viability Assay. Cell viability was estimated using the MTT kit, CellTiter 96® AQueous One Solution (Promega, PA). 20,000 cells/well were seeded in triplicate into 96-well plates. After 24-72 hrs, 20 μl of MTT reagent was added to wells containing cells or medium (blank), and absorption at 490 nm was measured using SpectraMax M5 plate reader (Molecular Devices).
# The IC50 was estimated using the drc package in R with lower bound set to 0 (Ritz et al., 2015). CIs were calculated using the formula a/A+b/B. Synergisms, additive effect and antagonism of combine treatment assays are defined as CI<1, CI=1 and CI>1 respectively, utilizing the Chou-Talalay Method (Chou, 2010).
# [15] = tested on: ME-1 cells; test: RNA-sequencing expression analysis of AI-10-49 treated ME-1 cells; format: cell-based, human; conditions: AI-10-49 1 μM, 6 hrs
# Method: RNA Sequencing. The RNA for RNA-sequencing was prepared with a PureLink® RNA Mini Kit. RNA concentration was quantified with a NanoDrop spectrophotometer (Thermo Scientific). RNA integrity was evaluated with a 2100 Bioanalyzer with an RNA 6000 kit (Agilent Technologies). Libraries were prepared with a TruSeq RNA library preparation kit (Illumina). Libraries were quantified by qPCR, normalized and pooled before sequencing with paired-end 90-bp reads on an Illumina HiSeq2000 in triplicate.
# RNA-seq data analysis. Raw reads from RNA-seq experiment were assessed for their quality using fastqc, followed by alignment to the reference human genome (hg19) using tophat v 2.0.9, bowtie2/2.1.0 (Trapnell et al., 2009) with the default setting except the following parameters: -b2-very-sensitive-mate-inner-dist 160-mate-std-dev 80-no-coverage-search-transcriptome-index=hg19_knownGene_transcriptome_data. Differential gene expression analysis was performed by cufflinks v 2.2.0 (Trapnell et al., 2012).
# [16] = tested on: RING1B; test: Time-course ChIP-qPCR for RING1B at E3 in ME-1 cells; format: cell-based, human; conditions: by 5 hr of AI-10-49 treatment
# Method: as §3
# [17] = AI-10-49 versus DMSO, ME-1 cells
compound,measurement,setting,value
"Cc1sc2c(c1C)C(c1ccc(Cl)cc1)=N[C@@H](CC(=O)OC(C)(C)C)c1nnc(C)n1-2 [JQ1, reference compound]",median latency of leukemia,[1],32 days
same,MYC transcript and protein levels,[2],readily reduced
"FC(F)(F)Oc1ccc2[nH]c(-c3ccccn3)nc2c1 [A-10-47, 2-(pyridin-2-yl)-5-(trifluoromethoxy)-1H-benzo[d]imidazole]",metabolic stability,[3],enhanced metabolic stability
FC(F)(F)Oc1ccc2[nH]c(-c3ccc(OCCOCCOc4ccc(-c5nc6cc(OC(F)(F)F)ccc6[nH]5)nc4)cn3)nc2c1 [AI-10-49],MYC expression,[4],reduced
same,RUNX1 peak increase at BDME-E3,[5]; [17],8 fold
same,RUNX1 peak increase at E5,[5]; [17],1.8 fold
same,RUNX1 peak increase at ME1,[5]; [17],5 fold
same,RUNX1 peak increase at ME2,[5]; [17],3 fold
same,RUNX1 occupancy at E3,"[5]; time course, by 5 hr of AI-10-49 treatment",90%
same,MYC expression,[6],not affected
same,median latency of leukemia,[1],39 days
same,MYC expression,[7],not affected
same,H3K27ac positive peaks,[8],"24,157 peaks"
same,repression of MYC transcript levels,[9],not in non-inv(16) AML cell lines
same,effect on CBFβ function,[10],minimal effect
same,repression of MYC transcript levels,"[2]; 1 uM AI-10-49, 6 hrs, ME-1 cells",10 fold
same,MYC transcript and protein levels,[2],readily reduced
same,MYC expression,[11],reduced
same,increase in RUNX1 binding to target regulatory elements,[12]; versus DMSO,7 fold
same,RUNX1 binding sites,[12]; DMSO 991,"6,652 sites"
same,MYC protein levels depleted,[13],approximately 20 fold
same,LD50 range at 95% confidence intervals,[14],0.398 to 0.537 mM
same,E2F1 levels repressed (RNA-seq),[15],3 fold
same,MYC levels repressed (RNA-seq),[15],over 10 fold
same,RING1B occupancy at E3,[16],90%
